The text below walks through data of PubChem BioAssay AID1745844 (Carcinogenic Potency Database (CPDB), 2022).

By TD50 is commonly meant the 50% point of the dose-response relation for the toxic effect studied.

“And” between values parts separate entries of the source, which are not always exact repeats. Equal values may be shown once. The source made the active and inactive calls. No rule for the calls is given here.

The data set has as its system rodent lifetime carcinogenesis bioassay, tumor incidence TD50. Kind of data set: chronic cancer bioassays in animals – CPDB, compiled studies (AID 1745844).
[1] abbreviates: rat, strain Sprague-Dawley, females, in feed, site: mammary tissue, wider than the gland, lesion: malignant tumor, dosed 104 weeks, study length 104 weeks.

With `CC(C)C(C(=O)OC(C#N)c1cccc(Oc2ccccc2)c1)c1ccc(Cl)cc1` (stereo not given), the TD50 was 173 mg/kg/day (inactive) (mouse, strain B6C3F1, females, in feed, site: any site (literature study), lesion: one or several types, types not named, dosed 104 weeks, study length 104 weeks); 251 mg/kg/day (inactive) (mouse, strain B6C3F1, males, in feed, site: any site (literature study), lesion: one or several types, types not named, dosed 104 weeks, study length 104 weeks); 384 mg/kg/day (inactive) (mouse, strain C57BL/6, females, by gavage, site: all sites, lesion: lymphoma, dosed 104 weeks, study length 114 weeks); 435 mg/kg/day (inactive) (mouse, strain C57BL/6, females, by gavage, site: any site (literature study), lesion: one or several types, types not named, dosed 104 weeks, study length 114 weeks); 659 mg/kg/day (inactive) (mouse, strain C57BL/6, males, by gavage, site: all sites, lesion: lymphoma, dosed 104 weeks, study length 114 weeks); 328 mg/kg/day (inactive) (mouse, strain C57BL/6, males, by gavage, site: liver, lesion: liver-cell tumor, dosed 104 weeks, study length 114 weeks). Further, the TD50 by setting is: (rat, strain Sprague-Dawley, females, in feed, site: mammary gland, lesion: fibroadenoma, dosed 104 weeks, study length 104 weeks) 58 mg/kg/day (inactive); (rat, strain Sprague-Dawley, females, in feed, site: mammary gland, lesion: fibroma, dosed 104 weeks, study length 104 weeks) 2.55 mg/kg/day (inactive); (rat, strain Sprague-Dawley, females, in feed, site: mammary tissue, wider than the gland, lesion: benign tumor, dosed 104 weeks, study length 104 weeks) 43.7 mg/kg/day (inactive) and 247 mg/kg/day (inactive); under setting [1], 150 mg/kg/day (inactive); (rat, strain Sprague-Dawley, males, in feed, site: subcutaneous tissue, lesion: fibrosarcoma, dosed 104 weeks, study length 104 weeks) 5.04 mg/kg/day (inactive); (rat, strain Sprague-Dawley, males, in feed, site: subcutaneous tissue, lesion: spindle-cell sarcoma, dosed 104 weeks, study length 104 weeks) 266 mg/kg/day (inactive). In addition, the carcinogen call was “negative (inactive)” (mouse, strain B6C3F1, females, in feed, site: liver, lesion: hepatocellular adenoma, dosed 104 weeks, study length 104 weeks); “negative (inactive)” (mouse, strain B6C3F1, females, in feed, site: liver, lesion: hepatocellular carcinoma, dosed 104 weeks, study length 104 weeks); “negative (inactive)” (mouse, strain B6C3F1, females, in feed, site: lung, lesion: bronchiolar adenoma, dosed 104 weeks, study length 104 weeks); “negative (inactive)” (mouse, strain B6C3F1, females, in feed, site: lung, lesion: bronchogenic carcinoma, dosed 104 weeks, study length 104 weeks); “negative (inactive)” (mouse, strain B6C3F1, males, in feed, site: liver, lesion: hepatocellular adenoma, dosed 104 weeks, study length 104 weeks); “negative (inactive)” (mouse, strain B6C3F1, males, in feed, site: liver, lesion: hepatocellular carcinoma, dosed 104 weeks, study length 104 weeks). Besides, the carcinogen call runs as follows: (mouse, strain B6C3F1, males, in feed, site: lung, lesion: bronchiolar adenoma, dosed 104 weeks, study length 104 weeks) “negative (inactive)”; (mouse, strain B6C3F1, males, in feed, site: lung, lesion: bronchogenic carcinoma, dosed 104 weeks, study length 104 weeks) “negative (inactive)”; (mouse, strain B6C3F1, males, in feed, site: skin, lesion: fibrosarcoma, dosed 104 weeks, study length 104 weeks) “negative (inactive)”; (mouse, strain C57BL/6, females, by gavage, site: liver, lesion: liver-cell tumor, dosed 104 weeks, study length 114 weeks) “negative (inactive)”; (mouse, strain C57BL/6, females, by gavage, site: lung, lesion: adenoma, dosed 104 weeks, study length 114 weeks) “negative (inactive)”; (mouse, strain C57BL/6, males, by gavage, site: any site (literature study), lesion: one or several types, types not named, dosed 104 weeks, study length 114 weeks) “negative (inactive)”. For the same molecule, the carcinogen call (mouse, strain C57BL/6, males, by gavage, site: lung, lesion: adenoma, dosed 104 weeks, study length 114 weeks) is “negative (inactive)”; the carcinogen call (rat, strain Sprague-Dawley, females, in feed, site: liver, lesion: round-cell sarcoma, dosed 104 weeks, study length 104 weeks) is “negative (inactive)”; the carcinogen call under setting [1] is “negative (inactive)”.

Turning to `CC1CC(C)(C)CC(OOC(C)(C)C)(OOC(C)(C)C)C1` (stereo not given), the TD50 is, setting by setting: (mouse, strain B6C3F1, females, in feed, site: any site (literature study), lesion: malignant tumor, dosed 78 weeks, study length 83 weeks) 9310 mg/kg/day (inactive); (mouse, strain B6C3F1, females, in feed, site: any site (literature study), lesion: one or several types, types not named, dosed 78 weeks, study length 83 weeks) 4230 mg/kg/day (inactive); (mouse, strain B6C3F1, females, in feed, site: lung, lesion: alveolar/bronchiolar carcinoma, dosed 78 weeks, study length 83 weeks) 19900 mg/kg/day (inactive); (mouse, strain B6C3F1, males, in feed, site: any site (literature study), lesion: one or several types, types not named, dosed 78 weeks, study length 83 weeks) 4980 mg/kg/day (inactive); (mouse, strain B6C3F1, males, in feed, site: liver, lesion: hepatocellular adenoma, dosed 78 weeks, study length 83 weeks) 1490 mg/kg/day (inactive); (mouse, strain B6C3F1, males, in feed, site: lung, lesion: alveolar/bronchiolar adenoma, dosed 78 weeks, study length 83 weeks) 7.6e+09 mg/kg/day (inactive). Further, the carcinogen call is “negative (inactive)” (mouse, strain B6C3F1, females, in feed, site: liver, lesion: one or several types, types not named, dosed 78 weeks, study length 83 weeks); “negative (inactive)” (mouse, strain B6C3F1, females, in feed, site: lung, lesion: alveolar/bronchiolar adenoma, dosed 78 weeks, study length 83 weeks); “negative (inactive)” (mouse, strain B6C3F1, males, in feed, site: any site (literature study), lesion: malignant tumor, dosed 78 weeks, study length 83 weeks); “negative (inactive)” (mouse, strain B6C3F1, males, in feed, site: liver, lesion: hepatocellular carcinoma, dosed 78 weeks, study length 83 weeks); “negative (inactive)” (mouse, strain B6C3F1, males, in feed, site: lung, lesion: alveolar/bronchiolar carcinoma, dosed 78 weeks, study length 83 weeks).

With `O=C1c2ccccc2C(=O)c2c(O)c(O)cc(O)c21`, the TD50 (rat, strain Fischer 344, males, in feed, site: urinary bladder, lesion: malignant tumor, dosed 74 weeks, study length 74 weeks) is 678 mg/kg/day; the TD50 (rat, strain Fischer 344, males, in feed, site: urinary bladder, lesion: squamous-cell carcinoma, dosed 74 weeks, study length 74 weeks) came to 3680 mg/kg/day; the TD50 (rat, strain Fischer 344, males, in feed, site: urinary bladder, lesion: transitional-cell carcinoma, dosed 74 weeks, study length 74 weeks) was 865 mg/kg/day.

Regarding `O=C(O)O`, the TD50 was 1330 mg/kg/day (inactive) (mouse, strain B6C3F1, males, in drinking water, site: liver, lesion: hepatocellular adenoma, dosed 52 weeks, study length 52 weeks); 5350 mg/kg/day (inactive) (rat, strain F344/DuCrj, males, in feed, site: urinary bladder, lesion: carcinoma, dosed 104 weeks, study length 104 weeks); 12800 mg/kg/day (rat, strain Wistar-random, females, in feed, site: urinary bladder, lesion: several types, types named in the paper, dosed 130 weeks, study length 130 weeks); 37100 mg/kg/day (rat, strain Wistar-random, females, in feed, site: urinary bladder, lesion: transitional-cell carcinoma, dosed 130 weeks, study length 130 weeks); 8280 mg/kg/day (rat, strain Wistar-random, females, in feed, site: urinary bladder, lesion: transitional-cell papilloma, dosed 78 weeks, study length 78 weeks); 20700 mg/kg/day (rat, strain Wistar-random, females, in feed, site: urinary bladder, lesion: transitional-cell papilloma, dosed 130 weeks, study length 130 weeks). Moreover, the TD50 is, setting by setting: (rat, strain Wistar-random, males, in feed, site: urinary bladder, lesion: several types, types named in the paper, dosed 78 weeks, study length 78 weeks) 6400 mg/kg/day; (rat, strain Wistar-random, males, in feed, site: urinary bladder, lesion: several types, types named in the paper, dosed 121 weeks, study length 121 weeks) 13200 mg/kg/day; (rat, strain Wistar-random, males, in feed, site: urinary bladder, lesion: transitional-cell carcinoma, dosed 78 weeks, study length 78 weeks) 12900 mg/kg/day; (rat, strain Wistar-random, males, in feed, site: urinary bladder, lesion: transitional-cell carcinoma, dosed 121 weeks, study length 121 weeks) 54400 mg/kg/day; (rat, strain Wistar-random, males, in feed, site: urinary bladder, lesion: transitional-cell papilloma, dosed 78 weeks, study length 78 weeks) 13100 mg/kg/day; (rat, strain Wistar-random, males, in feed, site: urinary bladder, lesion: transitional-cell papilloma, dosed 121 weeks, study length 121 weeks) 17800 mg/kg/day.

Consider `O=C(Nc1ccc([N+](=O)[O-])cc1Cl)c1cc(Cl)ccc1O`, for which the carcinogen call is, setting by setting: (mouse, strain B6C3F1, females, in feed, site: any site (literature study), lesion: several types, types named in the paper, dosed 78 weeks, study length 91 weeks) “negative (inactive)”; (rat, strain Osborne-Mendel, males, in feed, site: any site (literature study), lesion: several types, types named in the paper, dosed 78 weeks, study length 110 weeks) “negative (inactive)”. Besides, the TD50 is 175 mg/kg/day (mouse, strain B6C3F1, males, in feed, site: any site (literature study), lesion: several types, types named in the paper, dosed 78 weeks, study length 91 weeks); 2070 mg/kg/day (rat, strain Osborne-Mendel, females, in feed, site: any site (literature study), lesion: several types, types named in the paper, dosed 78 weeks, study length 110 weeks); 13300 mg/kg/day (rat, strain Osborne-Mendel, females, in feed, site: liver, lesion: hepatocellular adenoma + hepatocellular carcinoma + neoplastic nodule, dosed 78 weeks, study length 110 weeks); 6670 mg/kg/day (rat, strain Osborne-Mendel, females, in feed, site: thyroid gland, lesion: c-cell adenoma + c-cell carcinoma, dosed 78 weeks, study length 110 weeks); 5060 mg/kg/day (inactive) (rat, strain Osborne-Mendel, females, in feed, site: uterus, lesion: endometrial stromal polyp, dosed 78 weeks, study length 110 weeks).

`C=CCN(CC=C)N=O`: the TD50 (hamster, strain Syrian Golden, both sexes, by gavage, site: any site (literature study), lesion: several types, types named in the paper, dosed 53 weeks, study length 59 weeks) is 1.54 mg/kg/day; the TD50 (hamster, strain Syrian Golden, both sexes, by gavage, site: larynx, lesion: papillary polyp, dosed 53 weeks, study length 59 weeks) stood at 3.69 mg/kg/day; the TD50 (hamster, strain Syrian Golden, both sexes, by gavage, site: liver, lesion: cholangioma, dosed 53 weeks, study length 59 weeks) was 743 mg/kg/day; the TD50 (hamster, strain Syrian Golden, both sexes, by gavage, site: nasal cavity, posterior region, lesion: adenocarcinoma, dosed 53 weeks, study length 59 weeks) is 2.86 mg/kg/day; the TD50 (hamster, strain Syrian Golden, both sexes, by gavage, site: pharynx, lesion: papilloma, dosed 53 weeks, study length 59 weeks) came to 25.3 mg/kg/day; the TD50 (hamster, strain Syrian Golden, both sexes, by gavage, site: trachea, lesion: papillary polyp, dosed 53 weeks, study length 59 weeks) came out at 2.84 mg/kg/day. Further, the TD50 runs as follows: (rat, strain BD IX, females, in drinking water, site: nasal and paranasal cavity, lesion: adenocarcinoma, dosed 104 weeks, study length 104 weeks) 33.6 mg/kg/day; (rat, strain BD IX, females, in drinking water, site: nasal and paranasal cavity, lesion: several types, types named in the paper, dosed 104 weeks, study length 104 weeks) 32.1 mg/kg/day; (rat, strain BD IX, males, in drinking water, site: nasal and paranasal cavity, lesion: adenocarcinoma, dosed 104 weeks, study length 104 weeks) 46.9 mg/kg/day; (rat, strain BD IX, males, in drinking water, site: nasal and paranasal cavity, lesion: several types, types named in the paper, dosed 104 weeks, study length 104 weeks) 36 mg/kg/day.
